Measured values from patent publication US20200297601A1, “COMPOSITION FOR SKIN MOISTURIZATION OR SKIN WHITENING, CONTAINING PENTACYCLIC TRITERPENE CAFFEIC ACID ESTERS” (AMOREPACIFIC CORPORATION, priority 2016, published 2020).

Test system: filaggrin
Test: Immunofluorescent staining and imaging of filaggrin in artificial skin
Assay type: cell-based
Details: artificial skin (AmoreReskin) surface treated for 4 days, FIG. 3
Method: The skin moisturizing effect of Example 1 and Example 4 was evaluated by immunofluorescent staining and imaging of filaggrin which is known as an important skin moisturizing factor.
The surface of artificial skin (AmoreReskin™) was treated with 2 ppm ceramide PC 104, Example 1 and Example 4 for 4 days and then immunofluorescent staining was conducted. The immunofluorescent staining was conducted as follows.
i. Artificial skin is immersed in OCT solution (optimal cutting temperature, Tissue Tek) and stored at −70° C.
ii. The artificial skin is prepared into 10-μm thick sections using a cryotome and fixed on a slide.
iii. Lines are drawn around the artificial skin sections using a PAP pen.
iv. The slide is dried at room temperature for at least 8 hours.
v. The artificial skin sections are washed with PBS and […] in OCT solution.
vi. The artificial skin sections are treated with a blocking solution (1% BSA in PBS) for 30 minutes.
vii. The sections are treated with anti-filaggrin antibody (ab24584, Abcam) for 2 hours.
viii. The sections are treated with Texas Red anti-rabbit antibody (T6391, Life technologies) diluted to 1:200 in a blocking solution for 1 hour.
ix. The sections are stained with DAPI (4′,6-diamidino-2-phenylindole) for 5 minutes.
x. The sections are washed with PBS 3 times.
xi. […]

3β,23,28-Trihydroxy-12-oleanene 23-caffeate [Example 1]
filaggrin protein (immunofluorescence): significantly increased
